# Like-named read-outs stand apart in the source and are kept apart here. Starred links: 1 amine or outer side, 2 acyl side, 3 side chain; linkers in the order of their positions; H or OH if unused. Non-standard residues stand in square brackets, D forms with d. Residues, ends and D or L forms follow the SMILES beside them. No end group written: not given here. ξ: configuration not given here. X1 = O=C(C(Cc1ccc(O)cc1)N=CC(Cc1ccc(O)cc1)N[*:1])[*:2]; Pro(4S-Me) = C[C@@H]1CN[C@H](C(=O)O)C1; d(hSer) = N[C@H](CCO)C(=O)O; ξY = NC(Cc1ccc(O)cc1)C(=O)O
# Columns and labels:
# [1] = system: primary rat hepatocytes; type: cell-based; conditions: hepatocytes incubated for 96 hours
# Experimental: (§1) Rat hepatocytes were isolated by in vitro collagenase perfusion, Mellgren G, et al., Journal of Cellular Physiology 1995;163:232-240. Experimental conditions were as described in Herfindal L, et al., J Med Chem 2009;52:5758-5762, except for assay of NaN3 and general cytotoxicity, where the hepatocytes were seeded in collage-coated 24-well culture dishes. Microinjection of hepatocytes was as described previously, Fladmark KE, et al., Hepatology 1997;25:847-855. The hepatocyte death (by apoptosis or necrosis) was evaluated by microscopy. Long-term hepatocyte viability was assessed also by the WST-1 colorimetric assay of mitochondrial dehydrogenase activity (Roche Applied Sciences, Mannheim, Germany).
# [2] = system: primary rat hepatocytes; test: hepatocyte toxicity / long-term viability (microscopy, WST-1); type: cell-based; conditions: for inherent toxicity (morphology, growth, mitochondrial dehydrogenase activity of hepatocytes): hepatocytes incubated for 96 hours; for toxicity for primary rat hepatocytes: not shown
# Experimental: as §1
# [3] = system: primary rat hepatocytes
# [4] = system: CaM-KII; type: biochemical
# [5] = molecular target: T1, OATP1B3 (Homo sapiens, UniProt Q9NPD5)
# [6] = stability on storage and in solution; type: physicochemical
# [7] = molecular target: T2, Oatp1b2 (Rattus norvegicus, UniProt Q9QZX8)
# T2 sequence (Q9QZX8 1-687): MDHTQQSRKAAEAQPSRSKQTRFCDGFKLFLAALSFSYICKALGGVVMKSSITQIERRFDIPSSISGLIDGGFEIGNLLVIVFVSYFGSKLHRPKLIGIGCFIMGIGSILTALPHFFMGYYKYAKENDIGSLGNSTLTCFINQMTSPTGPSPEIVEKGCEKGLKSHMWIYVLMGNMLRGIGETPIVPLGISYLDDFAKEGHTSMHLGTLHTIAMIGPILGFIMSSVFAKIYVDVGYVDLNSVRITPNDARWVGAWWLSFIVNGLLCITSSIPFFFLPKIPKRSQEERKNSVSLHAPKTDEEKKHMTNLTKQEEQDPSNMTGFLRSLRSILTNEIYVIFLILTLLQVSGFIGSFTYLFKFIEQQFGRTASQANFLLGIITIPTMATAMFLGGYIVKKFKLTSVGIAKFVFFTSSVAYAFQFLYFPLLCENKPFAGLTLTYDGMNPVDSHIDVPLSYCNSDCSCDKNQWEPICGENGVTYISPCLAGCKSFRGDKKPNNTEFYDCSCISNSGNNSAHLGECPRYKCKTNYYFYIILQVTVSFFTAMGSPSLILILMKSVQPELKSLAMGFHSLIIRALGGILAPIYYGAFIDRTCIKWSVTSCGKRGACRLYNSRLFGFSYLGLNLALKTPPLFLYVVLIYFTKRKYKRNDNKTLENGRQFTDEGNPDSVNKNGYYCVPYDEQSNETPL
# [8] = solubility in physiological saline; type: physicochemical
# [9] = molecular target: T3, OATP1B1 (Homo sapiens, UniProt Q9Y6L6)
# Target sequence in this assay (Q9Y6L6 whole entry): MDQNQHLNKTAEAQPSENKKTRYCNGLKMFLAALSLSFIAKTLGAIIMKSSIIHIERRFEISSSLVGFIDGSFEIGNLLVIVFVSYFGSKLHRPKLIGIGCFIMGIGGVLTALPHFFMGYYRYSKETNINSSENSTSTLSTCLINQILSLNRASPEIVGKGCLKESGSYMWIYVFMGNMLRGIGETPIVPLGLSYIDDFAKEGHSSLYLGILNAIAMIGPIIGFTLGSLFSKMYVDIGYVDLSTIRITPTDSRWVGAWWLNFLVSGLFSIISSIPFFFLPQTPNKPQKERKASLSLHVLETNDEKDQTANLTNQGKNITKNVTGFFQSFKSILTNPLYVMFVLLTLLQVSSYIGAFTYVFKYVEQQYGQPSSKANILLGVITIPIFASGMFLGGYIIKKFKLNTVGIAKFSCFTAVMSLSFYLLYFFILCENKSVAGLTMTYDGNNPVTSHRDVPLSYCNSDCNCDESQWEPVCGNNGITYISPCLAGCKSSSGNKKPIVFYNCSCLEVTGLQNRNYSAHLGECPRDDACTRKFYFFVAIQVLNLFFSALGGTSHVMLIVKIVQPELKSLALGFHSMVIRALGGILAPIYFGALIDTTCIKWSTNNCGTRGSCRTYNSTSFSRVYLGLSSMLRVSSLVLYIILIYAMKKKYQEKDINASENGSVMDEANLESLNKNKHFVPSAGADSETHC
# [10] = system: HEK 293 cells; test: toxicity for HEK 293 cells with and without OATP1B1/B3 overexpression; conditions: not shown
# [11] = molecular target: T3, OATP1B1; remark: listed apart in the source
# Target sequence in this assay (Q9Y6L6 whole entry): as above
# [12] = molecular target: T2, Oatp1b2; remark: listed apart in the source
# [13] = molecular target: T3, OATP1B1; type: cell-based
# Target sequence in this assay (Q9Y6L6 whole entry, looked up): as the sequence (Q9Y6L6 whole entry) above
# [14] = molecular target: T1, OATP1B3; conditions: Gui et al. 2010; cited from earlier work
# [15] = molecular target: rat hepatocyte channel Oatp1b2 (rat) (UniProt Q9QZX8); test: cell-based or functional assay
# T1 sequence (Q9NPD5 whole entry): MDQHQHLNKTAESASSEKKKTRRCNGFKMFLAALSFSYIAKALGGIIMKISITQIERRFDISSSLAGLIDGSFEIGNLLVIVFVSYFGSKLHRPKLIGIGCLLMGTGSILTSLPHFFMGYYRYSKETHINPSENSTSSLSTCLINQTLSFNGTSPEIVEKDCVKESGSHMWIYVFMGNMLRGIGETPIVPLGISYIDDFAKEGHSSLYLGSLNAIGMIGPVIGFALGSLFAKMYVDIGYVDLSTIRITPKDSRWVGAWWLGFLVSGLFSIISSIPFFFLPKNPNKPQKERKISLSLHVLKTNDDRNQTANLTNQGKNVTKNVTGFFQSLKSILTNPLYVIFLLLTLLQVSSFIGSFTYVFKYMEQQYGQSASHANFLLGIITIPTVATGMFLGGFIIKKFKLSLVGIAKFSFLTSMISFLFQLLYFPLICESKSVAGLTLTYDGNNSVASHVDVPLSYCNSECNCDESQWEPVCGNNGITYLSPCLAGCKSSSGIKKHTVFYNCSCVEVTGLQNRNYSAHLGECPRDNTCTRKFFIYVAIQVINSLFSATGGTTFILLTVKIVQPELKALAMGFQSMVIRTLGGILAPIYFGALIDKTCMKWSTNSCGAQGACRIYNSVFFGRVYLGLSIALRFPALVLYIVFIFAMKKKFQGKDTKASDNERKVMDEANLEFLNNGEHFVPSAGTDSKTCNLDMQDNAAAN
molecule,measurement,setting,value
"O=C1OC(c2ccc(O)c(S(=O)(=O)O)c2)(c2ccc(O)c(S(=O)(=O)O)c2)c2c(Br)c(Br)c(Br)c(Br)c21 [BSP, bromosulfophthalein]","inherent toxicity (morphology, growth, mitochondrial dehydrogenase activity of hepatocytes)",[1],highly toxic
CC(C)[C@@H]1NC(=O)[C@@H]2CCCN2C(=O)[C@@H](CCO)NC(=O)C(Cc2ccc(O)cc2)NC(=O)C(Cc2ccc(O)cc2)N=CC(Cc2ccc(O)cc2)NC(=O)[C@@H]2C[C@H](C)CN2C1=O (stereo partly drawn) [Ncp-M1] (cyclo([X1][ξY][d(hSer)]PV[Pro(4S-Me)])),"inherent toxicity (morphology, growth, mitochondrial dehydrogenase activity of hepatocytes)",[2],no apparent inherent toxicity
same,toxicity for primary rat hepatocytes,[2],non-toxic
same,hepatocyte uptake of microcystin and nodularin,[3],blocks
same,"interference with intracellular steps of microcystin action (protein phosphatase inhibition, CaM-KII activation, ROS production, actin rearrangement)",[4],did not interfere
same,Ki,[5],10.63 pM
same,stability in solution,"[6]; in solution, in particular acidic solutions",degrade in solution
same,stability on storage,[6]; stored at -70°C,non-stable
same,Ki,[7],350 nM
same,solubility in physiological saline,[8],high solubility
same,Ki,[9],1500 nM
same,toxicity for HEK 293 cells,[10],non-toxic
"CC(C)[C@@H]1NC(=O)[C@@H]2CCCN2C(=O)[C@H](CO)NC(=O)[C@H](Cc2ccc(O)cc2)NC(=O)[C@H](Cc2ccc(O)cc2)NC(=O)[C@H](Cc2ccc(O)cc2)NC(=O)[C@@H]2CCCN2C1=O [cyclic peptide of Seq. ID. No. 1, Tyr1-Tyr2-Ser-Pro-Val-Pro-Tyr7] (cyclo(PVPYYYS))",inhibition of nodularin uptake / nodularin-induced apoptosis,[11],inhibited completely
same,potency compared with another peptide,[11],lower potency than Ncp-M1
same,"inherent toxicity (morphology, growth, mitochondrial dehydrogenase activity of hepatocytes)",[2],no apparent inherent toxicity
same,toxicity for primary rat hepatocytes,[2],non-toxic
same,inhibition of nodularin uptake / nodularin-induced apoptosis,[5],inhibited completely
same,potency compared with another peptide,[5],lower potency than Ncp-M1
same,preference for inhibition of OATP1B3,[5],even higher OATP1 B3 preference
same,inhibition of nodularin uptake / nodularin-induced apoptosis,[12],inhibited completely
same,potency compared with another peptide,[12],lower potency than Ncp-M1
same,solubility in physiological saline,[8],high solubility
same,toxicity for HEK 293 cells,[10],non-toxic
C/C=C1/C(=O)N[C@@H](C(=O)O)[C@H](C)C(=O)N[C@@H](CCCNC(=N)N)C(=O)N[C@@H](/C=C/C(C)=C/[C@H](C)[C@H](Cc2ccccc2)OC)[C@H](C)C(=O)N[C@@H](C(=O)O)CCC(=O)N1C [nodularin],Km,[13],32 nM
C[C@H]1[C@H](C)CC[C@]2(C(=O)O)CC[C@]3(C)C(=CC[C@@H]4[C@@]5(C)CC[C@H](O)C(C)(C)[C@@H]5CC[C@]43C)[C@H]12 [ursolic acid],selectivity for OATP1B3 compared to OATP1B1,[14],ten times
"YYSPVPY [linear version of the same peptide, Tyr-Tyr-Ser-Pro-Val-Pro-Tyr]",potency compared with another peptide,[5],considerably less potent
microcystin-LR (peptide),"apparent KM for uptake, deduced from apoptosis of primary rat hepatocytes",[15],0.27 pM

# Reference: patent publication EP2446893A1 (priority 2010, dated 2012)
